Patent US20230131899A1, “INHIBITORS OF MICROBIALLY INDUCED AMYLOID” (Axial Therapeutics, Inc., priority 2020, published 2023)
Where two headings read alike, the source gives them in different places.

Legend:
[1] = tested on: CsgA gene expression (csgBAC promoter-GFP reporter) in E. coli UTI89; assay: In vitro live cell fluorescent reporter assay of CsgA transcription (Reporter Assay); type: cell-based; settings: Escherichia coli
Method in brief: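 Chromosomal single-copy csgBAC promoter–GFP reporter in E. coli UTI89, started at OD600 0.003 in YESCA broth with compound (0.14–100 μM, 1% DMSO), 20 h at 27 °C. GFP (ex 485/em 525 nm) background-subtracted and normalized to vehicle; IC50 and X[50] from curve fits. OD600 tracked growth effects.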

[2] = target: T1, human α-synuclein (Homo sapiens, UniProt P37840); assay: Cell-free Thioflavin T assay of α-synuclein aggregation (αSyn ThT Assay); type: biochemical; settings: αSyn 50 μM
T1 construct: the full-length gene for untagged human α-synuclein was inserted; made in house; host or cells: E. coli BL21(DE3), plasmid derived from pT7 or pET11a
Method: To assess the effects of compounds on aggregation of α-synuclein, a cell-free assay was performed using purified α-synuclein and Thioflavin T. In the assay, human α-synuclein was expressed in E. coli BL21(DE3) from a plasmid derived from pT7 or pET11a into which the full-length gene for untagged human α-synuclein was inserted. Cells were induced at OD600 0.6 with 0.8 mM IPTG for 4 hours, harvested by centrifugation and suspended in a volume of lysis buffer (10 mM Tris, pH 8.0, 1 mM EDTA, and 1 mM PMSF) equivalent to one-tenth the volume of culture and lysed by boiling for 20 minutes. Cell debris was pelleted by centrifugation, clarified lysate was treated with 10% streptomycin sulfate at 136 μL/mL followed by glacial acetic acid at 228 μL/mL, lysate was centrifuged, supernatant was transferred to a fresh tube and protein was precipitated via addition of an equal volume of saturated (100%) ammonium sulfate and incubated at 4° C. on a rocking shaker for 1 hour. The protein was pelleted via centrifugation and washed with an equal volume of 100 mM ammonium acetate in chilled ethanol, pelleted via centrifugation, washed twice with chilled ethanol, dried overnight, resuspended in 50 mM potassium phosphate buffer pH 7.3 or 10 mM Tris pH 7.4, and passed through a 50 kDa cut-off column. Immediately prior to use, the purified α-synuclein was filtered with a 0.2 μm nylon filter. The assay was conducted in 96-well black microplates with a single 1-2 mm glass bead in each well, 20-40 μM ThioflavinT, 1% DMSO, α-synuclein at 50 μM and compounds at 20-100 μM. Plates were sealed with sealing tape (ThermoFisher 232701), incubated at 37° C. in a Tecan Nano F200 plate reader with excitation at 438 nm using a 439 nm filter with a bandwidth of 8 nm, and emission at 495 nm with a 490 nm filter with a bandwidth of 10 nm. During the assay, plates were shaken continuously or were shaken for 999 seconds every 18 minutes. Readings were performed hourly for up to 73 hours. The effect of compounds on α-synuclein aggregation in the assay was determined with data at 36, 47, 48 or 72 hours or from the final timepoint of the assay, prior to or roughly near the time when ThT fluorescence plateaued in the vehicle control wells. The vehicle controls contained all components of the assay except compounds and represented the level of α-synuclein aggregation in the absence of an inhibitor or accelerator. Fluorescence values for each compound with α-synuclein were first adjusted by subtracting the average fluorescence of the compound in the absence of α-synuclein. These adjusted values were normalized by dividing them by the average fluorescence at the same timepoint in the vehicle control wells, and the average normalized fluorescence with the compound was expressed as a percentage of the average fluorescence observed in untreated controls. Percent inhibition of α-synuclein aggregation by a compound was determined by subtracting the percent average fluorescence with the compound relative to the average vehicle control from 100%. A higher positive percent inhibition reflects greater inhibition of α-synuclein aggregation, while a negative percent inhibition reflects potentiation of α-synuclein aggregation.
Alternate concentrations of Thioflavin T may be used in the assay and may affect the fluorescent signal and sensitivity of the assay. Alternate concentrations of α-synuclein may be used and such alterations may affect aggregation kinetics of α-synuclein in the assay. Alternate concentrations of compounds may be tested in the assay, and dose-responses may be evaluated. Additional reagents may be added to the assay which may affect aggregation kinetics of α-synuclein depending on their concentration, including detergents such as sodium dodecyl sulfate, sodium chloride, dithiotreitol, or bovine serum albumin. Shaking may be included at alternate intervals in the assay and may affect α-synuclein aggregation kinetics. […]

[3] = target: T2, E. coli CsgA (Escherichia coli, UniProt P28307); assay: In vitro ThioflavinT assay of CsgA aggregation (CsgA ThT Assay); type: biochemical; settings: CsgA 2 μM, white plates; for remaining activity at 25 µM: compound 25 μM; for remaining activity at 100 µM: compound 100 μM
T2 construct: made in house; host or cells: E. coli NEB 3016 slyD::kan, pET11d
T2 sequence (P28307 23-151): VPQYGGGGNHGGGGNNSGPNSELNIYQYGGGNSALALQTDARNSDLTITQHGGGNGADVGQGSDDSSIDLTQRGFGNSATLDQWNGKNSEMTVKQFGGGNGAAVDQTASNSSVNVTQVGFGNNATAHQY
Method in brief: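 Purified C-terminal His-tagged CsgA, monomerised by desalting and 30-kDa filtration, at 2-20 μM with 20-40 μM ThT in 50 mM potassium phosphate pH 7.3, 1% DMSO, compounds 3.125-200 uM; room temperature, fluorescence (ex 438/em 495 nm) read every 15 min. Background-subtracted signal expressed as percent inhibition versus vehicle at 6-6.5 or 8-9 h, or as percent control AUC.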

[4] = read-out: Reporter Assay Abs IC50 (μM), median Abs IC50 in the CsgA reporter assay, N/A = maximum expression reduction is <50% of control
[5] = read-out: CsgA ThT Assay (2 μM CsgA) % Control Bmax 25 μM, activity range, class symbol
[6] = read-out: CsgA ThT Assay (2 μM CsgA) % Control Bmax 25 μM, mean Bmax as percentage of DMSO control
[7] = read-out: CsgA ThT Assay (2 μM CsgA) % Control Bmax 100 μM, activity range, class symbol
[8] = read-out: CsgA ThT Assay (2 μM CsgA) % Control Bmax 100 μM, mean Bmax as percentage of DMSO control
[9] = class symbol, compounds 100 μM, read-out: αSyn ThT Assay % inhibition, activity range
[10] = mean percent inhibition relative to DMSO control, compounds 100 μM, read-out: αSyn ThT Assay % inhibition
[11] = read-out: Reporter Assay Abs IC50, activity range, class symbol

Row | SMILES | IC50 ([1]; read-out: Reporter Assay Abs IC50 (activity range), median Abs IC50 in the CsgA reporter assay, class symbol) [µM] | IC50 [1, 4] [µM] | inhibition at 100 µM ([2]; mean % inhibition of αSyn aggregation relative to DMSO control, compounds at 100 μM, read-out: αSyn ThT Assay % Inhibition) [%] | inhibition at 100 µM ([2]; compounds at 100 μM, class symbol, read-out: αSyn ThT Assay % Inhibition (activity range)) [%] | remaining activity at 25 µM [3, 5] [%] | remaining activity at 25 µM [3, 6] [%] | remaining activity at 100 µM [3, 7] [%] | remaining activity at 100 µM [3, 8] [%] | inhibition at 100 µM [2, 9] [%] | inhibition at 100 µM [2, 10] [%] | IC50 [1, 11] [µM]
1 | O=C(O)C1CN(CCCCCCN2CC(C(=O)O)n3c(c(-c4cccc(C(F)(F)F)c4)c(Cc4cccc5ccccc45)cc3=O)S2(=O)=O)S(=O)(=O)c2c(-c3cccc(C(F)(F)F)c3)c(Cc3cccc4ccccc34)cc(=O)n21 (racemic) [Compound 043, 2,2′-(hexane-1,6-diyl)bis(8-(naphthalen-1-ylmethyl)-6-oxo-9-(3-(trifluoromethyl)phenyl)-3,4-dihydro-2H,6H-pyrido[1,2-e][1,2,5]thiadiazine-4-carboxylic acid 1,1-dioxide)] | < 1.3 | 0.7 | 72 | > 60 |  |  |  |  |  |  | 
2 | CCCN1CC(C(=O)O)n2c(c(-c3cccc(C(F)(F)F)c3)c(Cc3cccc4ccccc34)c(N3CCCC3=O)c2=O)S1(=O)=O (stereo not shown) [Compound 151, 8-(naphthalen-1-ylmethyl)-6-oxo-7-(2-oxopyrrolidin-1-yl)-2-propyl-9-(3-(trifluoromethyl)phenyl)-3,4-dihydro-2H,6H-pyrido[1,2-e][1,2,5]thiadiazine-4-carboxylic acid 1,1-dioxide] |  |  |  |  | > 60 | 67 | > 60 | 73 | > 60 | 61 | 
3 | CC(C)NC(=O)c1c(Cc2cccc3ccccc23)c(-c2cccc(C(F)(F)F)c2)c2n(c1=O)C(C(=O)O)CN(C)S2(=O)=O (stereo not shown) [Compound 157, 7-(isopropylcarbamoyl)-2-methyl-8-(naphthalen-1-ylmethyl)-6-oxo-9-(3-(trifluoromethyl)phenyl)-3,4-dihydro-2H,6H-pyrido[1,2-e][1,2,5]thiadiazine-4-carboxylic acid 1,1-dioxide] |  |  |  |  | > 60 | 81 | > 60 | 124 | > 60 | 83 | 
4 | CC(C)CNC(=O)c1c(Cc2cccc3ccccc23)c(-c2cccc(C(F)(F)F)c2)c2n(c1=O)C(C(=O)O)CN(C)S2(=O)=O (stereo not shown) [Compound 159, 7-(isobutylcarbamoyl)-2-methyl-8-(naphthalen-1-ylmethyl)-6-oxo-9-(3-(trifluoromethyl)phenyl)-3,4-dihydro-2H,6H-pyrido[1,2-e][1,2,5]thiadiazine-4-carboxylic acid 1,1-dioxide] |  |  |  |  | > 60 | 64 | > 60 | 76 | > 60 | 83 | 
5 | N#Cc1ccccc1CN1CC(C(=O)O)n2c1c(-c1cccc(C(F)(F)F)c1)c(Cc1cccc3ccccc13)c(Cl)c2=O (stereo not shown) [Compound 165, 6-chloro-1-(2-cyanobenzyl)-7-(naphthalen-1-ylmethyl)-5-oxo-8-(3-(trifluoromethyl)phenyl)-1,2,3,5-tetrahydroimidazo[1,2-a]pyridine-3-carboxylic acid] |  | 0.8 |  |  |  |  |  |  | 11 to 30 | 30 | < 1.3
6 | N#Cc1ccc(CN2CC(C(=O)O)n3c2c(-c2cccc(C(F)(F)F)c2)c(Cc2cccc4ccccc24)c(Cl)c3=O)cc1 (stereo not shown) [Compound 171, 6-chloro-1-(4-cyanobenzyl)-7-(naphthalen-1-ylmethyl)-5-oxo-8-(3-(trifluoromethyl)phenyl)-1,2,3,5-tetrahydroimidazo[1,2-a]pyridine-3-carboxylic acid] |  | 1.1 |  |  |  |  |  |  | 31 to 60 | 32 | < 1.3
7 | COc1cccc(CN2CC(C(=O)O)n3c2c(-c2cccc(C(F)(F)F)c2)c(Cc2cccc4ccccc24)c(Cl)c3=O)c1 (stereo not shown) [Compound 191, 6-chloro-1-(3-methoxybenzyl)-7-(naphthalen-1-ylmethyl)-5-oxo-8-(3-(trifluoromethyl)phenyl)-1,2,3,5-tetrahydroimidazo[1,2-a]pyridine-3-carboxylic acid] |  |  |  |  | 31 to 60 | 58 | 31 to 60 | 43 | 31 to 60 | 55 | 
8 | COc1ccccc1CN1CC(C(=O)O)n2c1c(-c1cccc(C(F)(F)F)c1)c(Cc1cccc3ccccc13)c(Cl)c2=O (stereo not shown) [Compound 195, 6-chloro-1-(2-methoxybenzyl)-7-(naphthalen-1-ylmethyl)-5-oxo-8-(3-(trifluoromethyl)phenyl)-1,2,3,5-tetrahydroimidazo[1,2-a]pyridine-3-carboxylic acid] |  | 1.8 |  |  |  |  |  |  | 31 to 60 | 45 | 1.3 to 4.5
9 | O=C(O)C1CN(Cc2ccccc2)c2c(-c3cccc(C(F)(F)F)c3)c(Cc3ccc(Cl)c4ccccc34)cc(=O)n21 (stereo not shown) [Compound 232, 1-benzyl-7-((4-chloronaphthalen-1-yl)methyl)-5-oxo-8-(3-(trifluoromethyl)phenyl)-1,2,3,5-tetrahydroimidazo[1,2-a] pyridine-3-carboxylic acid] |  | 0.7 |  |  |  |  |  |  | 11 to 30 | 23 | < 1.3
10 | COc1cc(Cc2cc(=O)n3c(c2-c2cccc(C(F)(F)F)c2)N(Cc2ccccc2)CC3C(=O)O)c2ccccc2c1 (stereo not shown) [Compound 233, 1-benzyl-7-((3-methoxynaphthalen-1-yl)methyl)-5-oxo-8-(3-(trifluoromethyl)phenyl)-1,2,3,5-tetrahydroimidazo[1,2-a]pyridine-3-carboxylic acid] |  | 0.6 |  |  |  |  |  |  | 31 to 60 | 50 | < 1.3
11 | COc1cc(Cc2c(-c3cccc(C(F)(F)F)c3)c3n(c(=O)c2Cl)C(C(=O)O)CN3Cc2ccccc2)c2ccccc2c1 (stereo not shown) [Compound 234, 1-benzyl-6-chloro-7-((3-methoxynaphthalen-1-yl)methyl)-5-oxo-8-(3-(trifluoromethyl)phenyl)-1,2,3,5-tetrahydroimidazo[1,2-a]pyridine-3-carboxylic acid] |  | 0.4 |  |  |  |  |  |  | > 60 | 70 | < 1.3
